From patent US6872725B2, “Solid-state forms of N-(2-hydroxyacetyl)-5-(4-piperidyl)-4-(4-pyrimidinyl)-3-(4-chlorophenyl) pyrazole” (Pharmacia Corporation, priority 2001, dated 2005)

Tests used:
[1] = physical stability of solid-state forms at ambient temperatures; type: physicochemical; conditions: compared with the other solid-state forms of Compound 1
From the text: In one embodiment, the invention comprises the Form I polymorph of Compound 1. […] Similarly, selection of a solid-state form of Compound 1 that is physically stable over a wide range of storage conditions (especially considering the different possible storage conditions that can occur during the lifetime of a Compound 1 product) can help avoid polymorphic or other degradative changes in the Compound 1 that can lead to product loss or deterioration of product efficacy.

[2] = slurry conversion of dihydrate crystals to Form I polymorph in tetrahydrofuran/water; type: physicochemical; conditions: 80:20 tetrahydrofuran/water mixture (volume basis), 25° C.
Description: The dihydrate crystalline form of Compound 1 also can be prepared, for example, by slurry conversion of the Form II polymorph in a tetrahydrofuran/water mixture. A sufficient amount of the Form II polymorph is added to an 80:20 tetrahydrofuran/water mixture (volume basis) to form a saturated solution at 25° C. The solution then spontaneously desaturates by precipitating dihydrate crystals. Once precipitated, the dihydrate crystals eventually convert to the more thermodynamically stable Form I polymorph.

time before conversion to the more thermodynamically stable Form I polymorph [2] | SMILES | physical stability at ambient temperatures [1]
 | O=C(CO)N1CCC(c2[nH]nc(-c3ccc(Cl)cc3)c2-c2ccncn2)CC1 [Form I polymorph, N-(2-hydroxyacetyl)-5-(4-piperidyl)-4-(4-pyrimidinyl)-3-(4-chlorophenyl)pyrazole] | greater physical stability at ambient temperatures than the other solid-state forms of Compound 1
does not take place for about four days | O=C(CO)n1nc(-c2ccc(Cl)cc2)c(-c2ccncn2)c1C1CCNCC1 [dihydrate crystalline form, N-(2-hydroxyacetyl)-5-(4-piperidyl)-4-(4-pyrimidinyl)-3-(4-chlorophenyl)pyrazole] | 
